Converted amounts (≈) assume the structure as drawn. Read-outs that look alike come from different tables or passages of the source.
Experiments:
[1] = test system: Loktanella hongkongensis; assay: agar disc diffusion assay, inhibition zone; assay type: cell-based; settings: Limimaricola hongkongensis, 24 h, read-out: Inhibition Zone Width
Procedure: (§1) Antibacterial activity was tested against bacteria using agar disc diffusion assay. Sterile paper discs (6 mm i.d.) impregnated with the substance under test at a concentration of 50 μg disc^−1 were applied onto the surface of an agar plate (plastic Petri dish) inoculated with one strain with sterile forceps and gently pressed down to ensure good contact with the surface. Blank discs treated with the same volume of DMSO were added. A control disc containing streptomycin was used. After the application of discs, the plates were incubated at 30° C. for 24 h. The size of the inhibition zone was measured. The results are presented in Table 8 and Table 9 for Cyclo (D)-Pro-(D)-Phe and b3-methyl-N-(2-phenylethyl)butanamide, respectively.

[2] = test system: Vibrio alginolyticus; assay: agar disc diffusion assay, inhibition zone; assay type: cell-based; settings: 24 h, read-out: Inhibition Zone Width
Procedure: as §1

[3] = test system: Rhodovulum sp.; assay: agar disc diffusion assay, inhibition zone; assay type: cell-based; settings: 24 h, read-out: Inhibition Zone Width
Procedure: as §1

[4] = test system: Vibrio halioticoli; assay: agar disc diffusion assay, inhibition zone; assay type: cell-based; settings: 24 h, read-out: Inhibition Zone Width
Procedure: as §1

[5] = test system: Vibrio furnissii; assay: agar disc diffusion assay, inhibition zone; assay type: cell-based; settings: 24 h, read-out: Inhibition Zone Width
Procedure: as §1

[6] = test system: Vibrio vulnificus; assay: agar disc diffusion assay, inhibition zone; assay type: cell-based; settings: 24 h, read-out: Inhibition Zone Width
Procedure: as §1

[7] = test system: Micrococcus luteus; assay: agar disc diffusion assay, inhibition zone; assay type: cell-based; settings: 30° C., 24 h, read-out: Inhibition Zone Width; for zone of inhibition at 50 µg/disc: 50 μg/disc
Procedure: as §1, with “using an” for “using”, “diffusion assay method.” for “diffusion assay.”, “control disc,” for “control disc”, “24 h, and then the” for “24 h. The”, “measured.” for “measured. The results are presented in Table 8 and Table 9 for Cyclo (D)-Pro-(D)-Phe and b3-methyl-N-(2-phenylethyl)butanamide, respectively.”
as §1

[8] = test system: Staphylococcus haemolyticus; assay: agar disc diffusion assay, inhibition zone; assay type: cell-based; settings: 30° C., 24 h, read-out: Inhibition Zone Width; for zone of inhibition at 50 µg/disc: 50 μg/disc
Procedure: as §1, with “using an” for “using”, “diffusion assay method.” for “diffusion assay.”, “control disc,” for “control disc”, “24 h, and then the” for “24 h. The”, “measured.” for “measured. The results are presented in Table 8 and Table 9 for Cyclo (D)-Pro-(D)-Phe and b3-methyl-N-(2-phenylethyl)butanamide, respectively.”
as §1

[9] = test system: Vibrio sp. (NAP-4); assay: agar disc diffusion assay, inhibition zone; assay type: cell-based; settings: 24 h, read-out: Inhibition Zone Width
Procedure: as §1, with “using an” for “using”, “diffusion assay method.” for “diffusion assay.”, “control disc,” for “control disc”, “24 h, and then the” for “24 h. The”, “measured.” for “measured. The results are presented in Table 8 and Table 9 for Cyclo (D)-Pro-(D)-Phe and b3-methyl-N-(2-phenylethyl)butanamide, respectively.”
as §1

[10] = test system: Vibrio harveyi; assay: agar disc diffusion assay, inhibition zone; assay type: cell-based; settings: 30° C., 24 h, read-out: Inhibition Zone Width; for zone of inhibition at 50 µg/disc: 50 μg/disc
Procedure: as §1, with “using an” for “using”, “diffusion assay method.” for “diffusion assay.”, “control disc,” for “control disc”, “24 h, and then the” for “24 h. The”, “measured.” for “measured. The results are presented in Table 8 and Table 9 for Cyclo (D)-Pro-(D)-Phe and b3-methyl-N-(2-phenylethyl)butanamide, respectively.”
as §1

[11] = test system: Pseudoalteromonas piscida; assay: agar disc diffusion assay, inhibition zone; assay type: cell-based; settings: 30° C., 24 h, read-out: Inhibition Zone Width; for zone of inhibition at 50 µg/disc: 50 μg/disc
Procedure: as §1, with “using an” for “using”, “diffusion assay method.” for “diffusion assay.”, “control disc,” for “control disc”, “24 h, and then the” for “24 h. The”, “measured.” for “measured. The results are presented in Table 8 and Table 9 for Cyclo (D)-Pro-(D)-Phe and b3-methyl-N-(2-phenylethyl)butanamide, respectively.”
as §1

[12] = test system: Pseudoalteromonas sp.; assay: agar disc diffusion assay, inhibition zone; assay type: cell-based; settings: 30° C., 24 h, read-out: Inhibition Zone Width; for zone of inhibition at 50 µg/disc: 50 μg/disc
Procedure: as §1, with “using an” for “using”, “diffusion assay method.” for “diffusion assay.”, “control disc,” for “control disc”, “24 h, and then the” for “24 h. The”, “measured.” for “measured. The results are presented in Table 8 and Table 9 for Cyclo (D)-Pro-(D)-Phe and b3-methyl-N-(2-phenylethyl)butanamide, respectively.”
as §1

[13] = test system: Vibrio fluvialis; assay: agar disc diffusion assay, inhibition zone; assay type: cell-based; settings: 30° C., 24 h, read-out: Inhibition Zone Width; for zone of inhibition at 50 µg/disc: 50 μg/disc
Procedure: as §1, with “using an” for “using”, “diffusion assay method.” for “diffusion assay.”, “control disc,” for “control disc”, “24 h, and then the” for “24 h. The”, “measured.” for “measured. The results are presented in Table 8 and Table 9 for Cyclo (D)-Pro-(D)-Phe and b3-methyl-N-(2-phenylethyl)butanamide, respectively.”
as §1

[14] = test system: Shewanella algae; assay: agar disc diffusion assay, inhibition zone; assay type: cell-based; settings: 30° C., 24 h, read-out: Inhibition Zone Width; for zone of inhibition at 50 µg/disc: 50 μg/disc
Procedure: as §1, with “using an” for “using”, “diffusion assay method.” for “diffusion assay.”, “control disc,” for “control disc”, “24 h, and then the” for “24 h. The”, “measured.” for “measured. The results are presented in Table 8 and Table 9 for Cyclo (D)-Pro-(D)-Phe and b3-methyl-N-(2-phenylethyl)butanamide, respectively.”
as §1

[15] = test system: Moraxella phenylpyruvica; assay: agar disc diffusion assay, inhibition zone; assay type: cell-based; settings: Psychrobacter phenylpyruvicus, 30° C., 24 h, read-out: Inhibition Zone Width; for zone of inhibition at 50 µg/disc: 50 μg/disc
Procedure: as §1, with “using an” for “using”, “diffusion assay method.” for “diffusion assay.”, “control disc,” for “control disc”, “24 h, and then the” for “24 h. The”, “measured.” for “measured. The results are presented in Table 8 and Table 9 for Cyclo (D)-Pro-(D)-Phe and b3-methyl-N-(2-phenylethyl)butanamide, respectively.”
as §1

[16] = in vivo; settings: Balanus amphitrite (barnacle) larvae, in vivo
Procedure: (§2) The larval bioassay was conducted according to Rittschof et al. (1994), which is incorporated by reference herein in its entirety.
(§3) Toxicity of cyclo (D)-Pro-(D)-Phe was determined using 24-well polystyrene plates. Pure compound was dissolved in DMSO and added to autoclaved FSW to form different concentrations. Competent Balanus amphitrites larvae (10±2 individuals) were added to each well with 1 ml testing solution in 5 replicates. The wells containing FSW served as the control. The 24-well plates were incubated at 30° C. for 24 h. The percent mortality was determined by counting the number of dead larvae under a dissecting microscope.
(§4) The assay was conducted according to Rittschof et al. (1994). Data plotted are means+SD of five replicates.

[17] = test system: Balanus amphitrite larvae; assay: in vivo
Procedure: as §2, §3, §4

[18] = test system: barnacle Balanus amphitrite larvae; assay: anti-larval settlement bioassay in 24-well plates; assay type: in vivo
Procedure: Anti-larval settlement activity of 3-chloro-2,5-dihydroxy benzyl alcohol (compound 1) was conducted using 24-well polystyrene plates. Pure compound was dissolved in DMSO and added to autoclaved FSW at different concentrations. Competent Balanus amphitrites larvae (10±2 individuals) were added to each well with 1 ml testing solution in 5 replicates, and wells containing FSW (filtered seawater) served as control. The 24-well plates were incubated at 30° C. for 24 h. The percent settlement was determined by counting the number of settled larvae under a dissecting microscope. In all bioassays, FSW served as the control. Statistical calculations were performed with the SPSS (Statistical Package for the Social Sciences) software package, Version 11.
as §2, §4
For determining anti-larval settlement activity, adult Balanus amphitrile (Darwin) were collected from the intertidal zone in Hong Kong (22°19′N, 114°16′E). Nauplii obtained from several adults were mass-reared to cyprid stage at a density of 2 larvae ml^−1 in 0.22-μm-filtered seawater with 30 ppt salinity (FSW) using Chaetoceros gracilis Schutt as food and a rearing temperature of 28° C. Newly transformed cyprids were used for the experiment.
Anti-larval settlement activity of succinic acid against B. amphitrite was determined using 24-well polystyrene plates. Pure compound was dissolved in autoclaved FSW ranged from 60-140 μg ml^−1 for B. amphitrite. Competent larvae (15±2 individuals) were added to each well with 1 ml testing solution in 5 replicates, and wells containing FSW served as the control. The 24-well plates were incubated at 30° C. for 24 h. The percent larval settlement was determined by counting the number of settled individuals under a dissecting microscope and expressed as a proportion of the total number of larvae in the well.

[19] = solubility in organic solvents; assay type: physicochemical; settings: at 25° C. in methanol, ethanol, propanol, butanol, ethyl acetate acetone, chloroform, dichloromethane and acetonitrile
[20] = test system: Ruegeria sp.; assay: agar disc diffusion assay, inhibition zone; assay type: cell-based; settings: 50 μg/disc, 30° C., 24 h; read-out: Inhibition Zone Width
Procedure: as §1, with “using an” for “using”, “diffusion assay method.” for “diffusion assay.”, “control disc,” for “control disc”, “24 h, and then the” for “24 h. The”, “measured.” for “measured. The results are presented in Table 8 and Table 9 for Cyclo (D)-Pro-(D)-Phe and b3-methyl-N-(2-phenylethyl)butanamide, respectively.”

[21] = test system: Staphylococcus aureus; assay: agar disc diffusion assay, inhibition zone; assay type: cell-based; settings: 50 μg/disc, 30° C., 24 h, read-out: Inhibition Zone Width
Procedure: as §1, with “using an” for “using”, “diffusion assay method.” for “diffusion assay.”, “control disc,” for “control disc”, “24 h, and then the” for “24 h. The”, “measured.” for “measured. The results are presented in Table 8 and Table 9 for Cyclo (D)-Pro-(D)-Phe and b3-methyl-N-(2-phenylethyl)butanamide, respectively.”

[22] = 100 μg (streptomycin control), 30° C.

`CC(C)CC(=O)NCCc1ccccc1` [Compound 3, 3-methyl-N-(2-phenylethyl) butanamide] gave a zone of inhibition at 50 µg/disc [1] of 0.5 mm, a zone of inhibition at 50 µg/disc [2] of 1.7 ± 0.6 mm and a zone of inhibition at 50 µg/disc [3] of 3 ± 0.5 mm. The zone of inhibition at 50 µg/disc [4] was 0 mm, the zone of inhibition at 50 µg/disc [5] was 0 mm and the zone of inhibition at 50 µg/disc [6] was 1.2 ± 0.7 mm. The zone of inhibition at 50 µg/disc [7] was 3.3 ± 0.6 mm, the zone of inhibition at 50 µg/disc [8] was 0.5 mm and the zone of inhibition at 50 µg/disc [9] was 0 mm. The zone of inhibition at 50 µg/disc [10] was 0 mm, the zone of inhibition at 50 µg/disc [11] was 1.5 mm and the zone of inhibition at 50 µg/disc [12] was 0 mm. The zone of inhibition at 50 µg/disc [13] was 0 mm, the zone of inhibition at 50 µg/disc [14] was 1.3 ± 0.6 mm and the zone of inhibition at 50 µg/disc [15] was 0 mm. For the same compound, the LC50 at 24 h [16] was 81.4 µg/mL (≈ 396 µM), the “therapeutic ratio LC50/EC50” value ([17]; Balanus amphitrite larvae) was 2.23 and the toxic symptoms ([17]; at the concentration of 50 μg ml^−1, 24 h) was “did not induce any toxic symptoms”. The EC50 ([18]; Amphibalanus amphitrite, read-out: EC50 (anti-larval settlement)) was 36.5 µg/mL (≈ 178 µM) and the solubility [19] was “soluble”.

With `O=C(O)CCC(=O)O` [Compound 4, succinic acid] the “therapeutic ratio LC50/EC50” value ([17]; in vivo) was 94.1 and the “concentration showing anti-larval settlement effects” value ([18]; tested range 60-140 μg ml^−1, 24 h) was 110 µg/mL.

Compound `[H]/N=C(/N)N[C@H]1[C@H](O)[C@@H](O)[C@H](O[C@@H]2O[C@@H](C)[C@](O)(C=O)[C@H]2O[C@@H]2O[C@@H](CO)[C@H](O)[C@@H](O)[C@@H]2NC)[C@@H](N/C(N)=N\[H])[C@@H]1O` [Streptomycin, reference compound] has a zone of inhibition at 100 µg/disc [1, 22] of 4 mm, a zone of inhibition at 100 µg/disc [2, 22] of 6.7 ± 2.3 mm and a zone of inhibition at 100 µg/disc [3, 22] of 5.3 ± 1.2 mm. For the same compound, the zone of inhibition at 100 µg/disc [4, 22] was 4.3 ± 0.6 mm, the zone of inhibition at 100 µg/disc [5, 22] was 2.3 ± 0.6 mm and the zone of inhibition at 100 µg/disc [6, 22] was 3.3 ± 0.8 mm. The zone of inhibition at 50 µg/disc [7] was 6.5 mm, the zone of inhibition at 100 µg/disc ([7]; 100 μg (streptomycin control)) was 6.7 ± 0.6 mm and the zone of inhibition at 50 µg/disc [8] was 6 mm. For the same compound, the zone of inhibition at 100 µg/disc ([8]; 100 μg (streptomycin control)) was 3 mm, the zone of inhibition at 50 µg/disc ([9]; 50 μg/disc, 30° C.) was 4 mm and the zone of inhibition at 100 µg/disc [9, 22] was 5.7 ± 0.6 mm. It also gave a zone of inhibition at 50 µg/disc [10] of 3 mm, a zone of inhibition at 100 µg/disc ([10]; 100 μg (streptomycin control)) of 6 mm and a zone of inhibition at 50 µg/disc [11] of 5 mm. It also gave a zone of inhibition at 100 µg/disc ([11]; 100 μg (streptomycin control)) of 3 ± 1 mm, a zone of inhibition at 50 µg/disc [12] of 6 mm and a zone of inhibition at 100 µg/disc ([12]; 100 μg (streptomycin control)) of 4 ± 1 mm. The zone of inhibition at 50 µg/disc [13] was 4 mm, the zone of inhibition at 100 µg/disc ([13]; 100 μg (streptomycin control)) was 3 mm and the zone of inhibition at 50 µg/disc [14] was 7 mm. It also gave a zone of inhibition at 100 µg/disc ([14]; 100 μg (streptomycin control)) of 6.3 ± 1.2 mm, a zone of inhibition at 50 µg/disc [15] of 0 mm and a zone of inhibition at 100 µg/disc ([15]; 100 μg (streptomycin control)) of 9 mm. For the same compound, the zone of inhibition at 50 µg/disc [20] was 4.5 mm and the zone of inhibition at 50 µg/disc [21] was 3.5 mm.

Source: patent US8257478B2, “Use of marine fungus originated compounds as antifouling agents” (The Hong Kong University of Science and Technology, priority 2004, dated 2012)
